Where two headings read alike, the source gives them in different places. Residues, ends and D or L forms follow the SMILES beside them.
Key:
ANG protein = ANG protein (Homo sapiens, UniProt P03950); test: binding of Plexin B2 peptides to ANG by ELISA and equilibrium dialysis
LNCaP cells = test: LNCaP cell proliferation in phenol red-free and steroid-free medium; format: cell-based, human; settings: for LNCaP cell proliferation: steroid-free medium, DHT 10 nM, ANG 0.1 μg/ml, or a mixture of the two
Description: (A) HUVE and LNCaP cells were cultured at the density indicated, and incubated with 0.1 μg/ml ANG for 2 h. Nuclear ANG were detected by indirect immunofluorescence with 26-2F and Alex 488 labeled 2nd antibody. (B) LNCaP cells were culture in phenol red-free and charcoal/dextran-stripped (steroid-free) FBS for 2 day and stimulated with DHT (10 nM), ANG (0.1 μg/ml), or a mixture of the two for the time indicated. (C) Dose dependence. ANG was added to the cells and cultured for 4 days. Cell numbers were determined with a Coulter counter.
ANG plays a dual role in prostate cancer progression. It not only mediates tumor angiogenesis but also directly stimulates cancer cell proliferation.

[1] = system: Plexin B2 transfectants of COS-7 cells; test: nuclear translocation of ANG in Plexin B2-transfected COS-7 cells; format: cell-based, monkey; settings: neomycin 10 min, then 1 μg/ml ANG for 2 h
Description: The Plexin B2 transfectants were treated with neomycin at the concentration indicated for 10 min and then incubated with 1 μg/ml ANG for 2 h. ANG was detected by immunofluorescence (top panels). Nuclei were stained by DAPI (middle panels). The merged images were shown in bottom panels.
The effect of neomycin on Plexin B2 transfectants of COS-7 cells was examined. […] Therefore, transfection of human Plexin B2 cDNA converted COS-7 cells into ANG responsive cells. In term of nuclear translocation of ANG, which is essential for the biological activity of ANG, Plexin B2 transfectants of COS-7 cells act in a similar fashion as do LNCaP cells and sparsely cultured HUVE cells, the two known ANG responsive cell lines.

[2] = system: ANG receptor expressing LNCaP cells; test: radio receptor assay, binding of 125I-ANG to LNCaP cells; set-up: species or system human; settings: 4° C., Scatchard analysis
Description: (A) Subconfluent LNCaP cells were incubated with ^125I-ANG at 4° C. for 30 min and bound ANG was determined by a gamma counter. (B) Scatchard plot of the results produced in experiment described in (A).
The thermodynamics of ANG binding to LNCaP cells was determined by a standard radio receptor assay. ANG was labeled with iodine-125 and incubated with ANG receptor expressing LNCaP cells at 4° C.

[3] = system: Plexin B2 transfectants of COS-7 cells; test: AKT phosphorylation in Plexin B2 transfectants of COS-7 cells (Western); format: cell-based, monkey; settings: not in vector control, ANG 2 h
Description: Vector (A-C) and Plexin B2 (D-F) transfected COS-7 cells were incubated with 1 μg/ml ANG for 2 h. ANG was detected by immunofluorescence (A and D). Nuclei were stained by DAPI (B and E). The merged images were shown in C and F. (G) Vector and Plexin B2 transfectants were incubated with ANG at the concentration indicated for 2 h. Cells were lysed, cell lysates (60 μg protein) were subjected for SDS-PAGE and Western analysis for phospho-AKT and total AKT with respective antibodies.
The phosphorylation status of AKT in the Plexin B2 transfectants of COS-7 cells was examined.

[4] = system: ANG receptor expressing LNCaP cells; settings: background statement, no data shown; cited from earlier work

Chain of ANG protein (P03950 25-147): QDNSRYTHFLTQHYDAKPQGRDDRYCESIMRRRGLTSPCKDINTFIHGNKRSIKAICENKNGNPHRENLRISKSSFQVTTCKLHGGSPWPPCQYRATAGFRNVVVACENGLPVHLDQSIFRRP

Molecule: LDKVHAKMEANRNAC (listed as Homo sapiens) [SEQ ID NO: 2]
- binding to ANG (ANG protein): able to bind to ANG

Molecule: RDGLRGTAVLQRGGLNL (listed as Homo sapiens) [SEQ ID NO: 3]
- binding to ANG (ANG protein): able to bind to ANG

Molecule: CC[C@H](C)[C@H](NC(=O)[C@H](CCC(=O)O)NC(=O)[C@@H](NC(=O)[C@H](CC(C)C)NC(=O)[C@@H](NC(=O)[C@H](CO)NC(=O)[C@H](CC(=O)O)NC(=O)[C@H](Cc1ccc(O)cc1)NC(=O)[C@H](CCC(=O)O)NC(=O)[C@H](CO)NC(=O)[C@H](CO)NC(=O)[C@@H](NC(=O)CN)[C@@H](C)O)[C@@H](C)CC)C(C)C)C(=O)N[C@@H](CC(N)=O)C(=O)N[C@@H](CCCCN)C(=O)N[C@@H](CCCNC(=N)N)C(=O)N[C@H](C(=O)N[C@@H](CCCCN)C(=O)O)C(C)C [SEQ ID NO: 1, GTSSEYDSILVEINKRVK] (H-GTSSEYDSILVEINKRVK-OH; N-terminus and C-terminus assumed)
- binding to ANG (ANG protein): able to bind to ANG

Molecule: C[C@]12CCC(=O)C[C@@H]1CC[C@@H]1[C@@H]2CC[C@]2(C)[C@@H](O)CC[C@@H]12 [DHT, Dihydrotestosterone, reference compound]
- LNCaP cell proliferation (LNCaP cells): stimulated LNCaP cell proliferation

Molecule: neomycin
- nuclear translocation of ANG [1]: inhibits nuclear translocation of ANG in the Plexin B2 transfectants of COS-7 cells in a dose-dependent manner

Molecule: ANG: small, secreted protein Angiogenin, a potent inducer of angiogenesis; human ANG is SEQ ID NO: 5
- Kd ([2]; read-out: apparent Kd, first ANG binding site): 0.00045 µM
- Kd ([2]; read-out: apparent Kd, second ANG binding site): 0.17 µM
- LNCaP cell proliferation, dose dependence (LNCaP cells; cultured for 4 days, cell numbers by Coulter counter): stimulated LNCaP cell proliferation in a dose-dependent manner
- LNCaP cell proliferation (LNCaP cells): stimulated LNCaP cell proliferation in the absence of androgen
- AKT phosphorylation [3]: induced AKT phosphorylation

B1: RNase A: protein with 35% amino acid identity to ANG, used on Sepharose column to remove non-specific proteins (protein, UniProt P61823 27-150, looked up)
Ribonuclease pancreatic: KETAAAKFERQHMDSSTSAASSSNYCNQMMKSRNLTKDRCKPVNTFVHESLADVQAVCSQKNVACKNGQTNCYQSYSTMSITDCRETGSSKYPNCAYKTTQANKHIIVACEGNPYVPVHFDASV
- binding to the LNCaP cell surface [4]: does not bind to the LNCaP cell surface

Source: patent US9353188B2, “Modulators of Plexin B2 activity” (President and Fellows of Harvard College, priority 2011, dated 2016)
